# Values joined by “and” are separate entries in the source; they are usually repeats but may differ in a detail not shown here. Equal entries are not always repeated.
# How the values were obtained:
# CEM cells [1] = assay: Targeted LC-MS/MS-MRM of de novo and salvage dCTP biosynthesis (nucleotide pools and newly replicated DNA); type: cell-based, human; design: key to Substrate utilization Glucose / Substrate utilization dC: ↓: partial decrease/inhibition; ↓↓↓: nearly complete inhibition; ↑: increase; ⟷: no change
# Protocol: Cells were transferred into RPMI-1640 without glucose and supplemented with 10% dialyzed FBS (Gibco) containing the following labeled substrates: precursors for de novo [U-^13C6]glucose (Sigma-Aldrich, 389374) at 11 mM; precursors for purine salvage [U-^13C10,^15N5]dA (Cambridge Isotopes, CIL 3896), [^15N5]dA (Cambridge Isotopes, NLM-3895) and [^15N5]dG (Cambridge Isotopes, NLM-3899) at 5 µM or as indicated; and precursors for pyrimidine salvage: [U-^13C9,^15N3]dC (Silantes, 124603602) and [U-^13C10,^15N2]dT (Cambridge Isotopes, CNLM-3902) at 5 µM and [^15N2]orotate (Cambridge Isotopes, NLM-1048) at indicated concentrations. The cells were incubated for 12 h or as indicated before sample collection and processing.
# The rates of dCTP incorporation into the DNA were determined using linear regression with procedure GLM in SAS (v. 9.4). DNA % label was transformed using a shifted log addition of 1 due to the presence of zeros in the data set. Rates were calculated using the slope of the regression line for the log transformed data and are presented in the table with the associated standard errors, along with the ratio between the rate of incorporation into DNA by the de novo and salvage pathways (Table 1).
# Cell cycle synchronization. Cells were treated with a CDK4/6 inhibitor, Pablociclib or PD-0332991 (Selleckchem, S1116) for 18 h to synchronize them in the G1 phase. Subsequently, cells were washed twice with PBS containing 2% FBS (Omega Scientific) and released into fresh media. […]
# Clinical Microarray Core on an Illumina HiSeq3000 using the SeqCap EZ Exome Enrichment Kit v3.0 (Roche).
# Reads were mapped to UCSC hg19 (bwa-mem), deduplicaed (PicardTools), and subjected to base quality score recalibration and realignment around known indels according to the Broad Institute Genome Analysis Toolkit (GATK) Best Practices v3.0. Variants in genes associated with nucleotide biosynthesis were identified using the GATK HaplotypeCaller, and annotated with Oncotator (http://portals.broadinstitute.org/oncotator/). dNTP sample processing. 0.5 – 1 x 10^6 cells were collected into 1.5 mL microcentrifuge tubes and centrifuged (450 x g, 4 min, 4 °C). The supernatant was carefully aspirated and the cells were washed twice with 1 mL of cold PBS, followed each time by centrifugation (450 x g, 4 min 4 °C). The PBS were aspirated.
# Thereafter, the pellets were treated with 10 µL of 10% trifluoroacetic acid with internal standards (1 µM […]
# s, and incubated on ice for 10 min. 40 µL of 500 mM ammonium acetate, pH = 9.3, with the same internal standard (1 µM [15N3]dCMP and [15N3]dCTP) was then added and the samples were vigorously vortexed again for 30 s. The samples were centrifuged (14,000 x g, 10 min, 4 °C) to remove cell debris. The supernatants (~ 40 µL) were transferred into HPLC injector vials. Stock solutions (10 mM) of rCTP, rCDP, dCMP, dCDP, and dCTP (Sigma Aldrich) were prepared individually in water, and stored at –20 °C before use to generate calibration standards. Calibration standards were prepared and mixed together in water with internal standards (1 µM [15N3]dCMP and [15N3]dCTP) to make working stock concentrations in 100 nM – 100 µM range.
# Calibration standards were diluted 10-fold into the same nucleotide extraction solution of 10% TFA/500 mM ammonium acetate (1:4, v/v) with internal standards (1 µM [15N3]dCMP and [15N3]dCTP) to give a final concentration in 10 nM – 10 µM. Nucleotide and calibration samples were processed together to minimize […]
# DNA sample processing. Genomic DNA from 0.5 – 1 x 10^4 cells was extracted using the Quick-gDNA MiniPrep kit (Zymo Research, D3021) and hydrolyzed to nucleosides using the DNA Degradase Plus kit (Zymo Research, E2021), following manufacturer-supplied instructions. In the final step of DNA extraction, 50 µL of […]
# water was used to elute the DNA into 1.5 mL microcentrifuge tubes. A nuclease solution (5 µL; 10X buffer/DNA Degradase Plus™/water, 2.5/1/1.5, v/v/v) was added to 20 µL of the eluted genomic DNA in an HPLC injector […]
# vial. […]
# CEM cells [2] = assay: Apoptosis assay, Annexin V and PI staining; type: cell-based, human; settings: 500 nM 3-AP, 1 µM VE-822, 1 µM dCKi, 24 h
# Protocol: Apoptosis and cell death were assayed using Annexin V-FITC and PI according to manufacturer’s instructions (FITC Annexin V Apoptosis Detection Kit, BD Sciences, #556570). […]
# Annexin V staining. Cells were treated with the indicated treatments for 24 or 72 h, then collected and washed twice with 1 mL of FACS buffer (2% FBS in PBS). Induction of apoptosis and cell death were assayed by staining the cells with Annexin V-FITC and PI according to manufacturer’s instructions (FITC Annexin V Apoptosis Detection Kit, BD Sciences, #556570).
# FACS analysis. All flow cytometry data were acquired on five-laser LSRII cytometers (BD) for analysis, and analyzed using FlowJo software (Tree Star). […]
# [3] = CEM 12 h, 1 uM VE-822, 1 uM DI-82, 500 nM 3-AP, #1-#3
# [4] = CEM after release from G1 arrest
compound,measurement,setting,value
COc1ccc(-c2nc([C@@H](C)Sc3nc(N)cc(N)n3)c(C)s2)cc1OCCNS(C)(=O)=O [dCKi],reduction of the amount of free dCTP,CEM cells [1]; 12 h time point after release from G1 arrest,~ 50%
same,"% sum abundance, de novo DNA-C, mass increase in nucleobase +0, in deoxyribose +3",CEM cells [1]; [3],0.18% and 0.19%
same,"% sum abundance, de novo DNA-C, mass increase in nucleobase +0, in deoxyribose +4",CEM cells [1]; [3],0.58% and 0.55%
same,"% sum abundance, de novo DNA-C, mass increase in nucleobase +0, in deoxyribose +5",CEM cells [1]; [3],9.50% and 9.45% and 9.86%
same,"% sum abundance, de novo DNA-C, mass increase in nucleobase +1, in deoxyribose +3",CEM cells [1]; [3],0.00%
same,"% sum abundance, de novo DNA-C, mass increase in nucleobase +1, in deoxyribose +4",CEM cells [1]; [3],0.09% and 0.07%
same,"% sum abundance, de novo DNA-C, mass increase in nucleobase +1, in deoxyribose +5",CEM cells [1]; [3],1.18% and 1.24%
same,"% sum abundance, de novo DNA-C, mass increase in nucleobase +2, in deoxyribose +4",CEM cells [1]; [3],0.053% and 0.05%
same,"% sum abundance, de novo DNA-C, mass increase in nucleobase +2, in deoxyribose +5",CEM cells [1]; [3],0.82% and 0.79% and 0.87%
same,"% sum abundance, de novo DNA-C, mass increase in nucleobase +3, in deoxyribose +4",CEM cells [1]; [3],0.00%
same,"% sum abundance, de novo DNA-C, mass increase in nucleobase +3, in deoxyribose +5",CEM cells [1]; [3],0.20% and 0.19%
same,"% sum abundance, de novo DNA-C, mass increase in nucleobase +4, in deoxyribose +4",CEM cells [1]; [3],0.00%
same,"% sum abundance, de novo DNA-C, mass increase in nucleobase +4, in deoxyribose +5",CEM cells [1]; [3],0.00%
same,"% sum abundance, salvage DNA-C, mass increase in nucleobase +5, in deoxyribose +0",CEM cells [1]; [3],0.00%
same,"% sum abundance, salvage DNA-C, mass increase in nucleobase +5, in deoxyribose +4",CEM cells [1]; [3],0.00%
same,"% sum abundance, salvage DNA-C, mass increase in nucleobase +5, in deoxyribose +5",CEM cells [1]; [3],0.00%
same,"% sum abundance, salvage DNA-C, mass increase in nucleobase +6, in deoxyribose +0",CEM cells [1]; [3],0.00%
same,"% sum abundance, salvage DNA-C, mass increase in nucleobase +6, in deoxyribose +4",CEM cells [1]; [3],0.00%
same,"% sum abundance, salvage DNA-C, mass increase in nucleobase +6, in deoxyribose +5",CEM cells [1]; [3],0.00%
same,"% sum abundance, salvage DNA-C, mass increase in nucleobase +7, in deoxyribose +0",CEM cells [1]; [3],0.00%
same,"% sum abundance, salvage DNA-C, mass increase in nucleobase +7, in deoxyribose +4",CEM cells [1]; [3],0.00%
same,"% sum abundance, salvage DNA-C, mass increase in nucleobase +7, in deoxyribose +5",CEM cells [1]; [3],0.07% and 0.09% and 0.0853%
same,"% sum abundance, unlabeled DNA-C, mass increase in nucleobase +0, in deoxyribose +0",CEM cells [1]; [3],77.58% and 77.11% and 77.29%
same,"% sum abundance, unlabeled DNA-C, mass increase in nucleobase +0, in deoxyribose +1",CEM cells [1]; [3],4.40% and 4.55% and 4.26%
same,"% sum abundance, unlabeled DNA-C, mass increase in nucleobase +0, in deoxyribose +2",CEM cells [1]; [3],0.75% and 0.68% and 0.59%
same,"% sum abundance, unlabeled DNA-C, mass increase in nucleobase +1, in deoxyribose +0",CEM cells [1]; [3],4.14% and 4.45% and 4.26%
same,"% sum abundance, unlabeled DNA-C, mass increase in nucleobase +1, in deoxyribose +1",CEM cells [1]; [3],0.23% and 0.29% and 0.22%
same,"% sum abundance, unlabeled DNA-C, mass increase in nucleobase +1, in deoxyribose +2",CEM cells [1]; [3],0.00%
same,"% sum abundance, unlabeled DNA-C, mass increase in nucleobase +2, in deoxyribose +0",CEM cells [1]; [3],0.23% and 0.31% and 0.29%
same,"% sum abundance, unlabeled DNA-C, mass increase in nucleobase +2, in deoxyribose +1",CEM cells [1]; [3],0.00%
same,"% sum abundance, unlabeled DNA-C, mass increase in nucleobase +2, in deoxyribose +2",CEM cells [1]; [3],0.00%
same,"% sum abundance, unlabeled DNA-C, mass increase in nucleobase +3, in deoxyribose +0",CEM cells [1]; [3],0.00%
same,"% sum abundance, unlabeled DNA-C, mass increase in nucleobase +3, in deoxyribose +1",CEM cells [1]; [3],0.00%
same,"% sum abundance, unlabeled DNA-C, mass increase in nucleobase +4, in deoxyribose +0",CEM cells [1]; [3],0.00%
same,De novo: rate of dCTP incorporation into newly replicated DNA (slope ± standard error of regression line),CEM cells [1]; [4],0.23 ± 0.01 arbitrary unit
same,Ratio (salvage/de novo),CEM cells [1]; [4],0.082
same,Salvage: rate of dCTP incorporation into newly replicated DNA (slope ± standard error of regression line),CEM cells [1]; [4],0.019 ± 0.004 arbitrary unit
same,"reduction of dCK activity (contribution of labeled [13C9,15N3]dC to intracellular dCMP)","CEM cells [1]; asynchronous CEM, 12 h",~ 90%
same,Substrate utilization Glucose,"CEM cells [1]; summary Fig. 2g, CEM cells",↑
same,Substrate utilization dC,"CEM cells [1]; summary Fig. 2g, CEM cells",↓↓↓
same,Annexin V+ cells (apoptosis induction),CEM cells [2],11.1%

# — article PMC5556071, “ATR inhibition facilitates targeting of leukemia dependence on convergent nucleotide biosynthetic pathways” (Nature Communications, 2017)
